Values of other authors in patent US20170239214A1, “COMPOSITION FOR PREVENTING OR TREATING OBESITY CONTAINING ALPHA-LIPOIC ACID AND N-ACETYLCYSTEINE AS ACTIVE INGREDIENTS” (The Asan Foundation, priority 2015, published 2017).

How the values were obtained:
[1] = mice
[2] = rats

SMILES | appetite suppressant effect [1] | improving insulin resistance [2] | inhibiting a weight gain [2]
O=C(O)CCCCC1CCSS1 (stereo not drawn) [α-lipoic acid] | pronounced appetite suppressant effect | – | –
CC(=O)N[C@@H](CS)C(=O)O [N-acetylcysteine] | – | improving insulin resistance | significant effects of inhibiting a weight gain
